Results on eight molecules are retold here after PubChem BioAssay (NCI).

Test systems include SR leukemia; MDA-MB-231 breast; MCF7 breast; MOLT-4 leukemia; HS 578T breast; PC-3 prostate; OVCAR-3 ovarian; IGROV1 ovarian; UO-31 renal; MALME-3M melanoma; CAKI-1 renal; OVCAR-8 ovarian; 786-0 renal; CCRF-CEM leukemia; U251 CNS; OVCAR-5 ovarian; SF-539 CNS; NCI-H522 lung; SK-MEL-28 melanoma.
Experiment in all cases: growth of human tumour cells (NCI), 48 h

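Cells were grown in 96-well plates and exposed to each compound for 48 hours at five concentrations; endpoints were interpolated linearly between bracketing concentrations, or set to the highest concentration if not reached. Definition used: TGI = concentration required for complete inhibition of growth.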

On to `CCN(CC)CCn1c(=O)c2cccnc2n2c3c(=O)n(C)c(=O)n(C)c3nc12`, for which the TGI in the experiment on SR leukemia, in the experiment with MDA-MB-231 breast, with MCF7 breast, in the experiment with MOLT-4 leukemia, in the experiment with HS 578T breast and in the experiment on PC-3 prostate was above 100 µM in each case. In addition, the TGI with OVCAR-3 ovarian, in the experiment on IGROV1 ovarian, in the experiment with UO-31 renal, with MALME-3M melanoma, with CAKI-1 renal and in the experiment with OVCAR-8 ovarian was above 100 µM each time. For the same molecule, the TGI in the experiment on 786-0 renal, with CCRF-CEM leukemia, in the experiment on U251 CNS, in the experiment on OVCAR-5 ovarian, in the experiment with SF-539 CNS and in the experiment on NCI-H522 lung was above 100 µM each time. In the experiment with SK-MEL-28 melanoma, this molecule returned a TGI above 100 µM.
As to `CN1CSC(=S)N(c2c3ccccc3nc3ccc(Br)cc23)C1`, the TGI with SR leukemia is 12.6 µM; with MDA-MB-231 breast, 22.9 µM; in the experiment on MCF7 breast it was 24.1 µM; in the experiment on MOLT-4 leukemia, 5.87 µM; in the experiment with HS 578T breast, 47.2 µM; in the experiment with PC-3 prostate, 26.3 µM. The TGI with OVCAR-3 ovarian is 33.3 µM; in the experiment on IGROV1 ovarian, 25.1 µM; in the experiment on UO-31 renal it was 22.4 µM; in the experiment with MALME-3M melanoma it was 33.2 µM; with CAKI-1 renal it was 24 µM; with OVCAR-8 ovarian, above 51.2 µM. Besides, the TGI with 786-0 renal was found to be 16.6 µM; in the experiment with CCRF-CEM leukemia, 22.8 µM; with U251 CNS it was 20.4 µM; in the experiment on OVCAR-5 ovarian, 31.6 µM; with SF-539 CNS, 25.7 µM; in the experiment on NCI-H522 lung it was 12.6 µM. The TGI in the experiment on SK-MEL-28 melanoma turned out to be 35.2 µM.
For `CC1(C)CCCC2OC2CCC(C)(C)C1=O` (centres undefined), the TGI with SR leukemia, in the experiment with MDA-MB-231 breast, in the experiment on MCF7 breast, with MOLT-4 leukemia, in the experiment with HS 578T breast and with PC-3 prostate was above 100 µM throughout. Further, the TGI with OVCAR-3 ovarian, in the experiment with IGROV1 ovarian, with UO-31 renal, in the experiment on MALME-3M melanoma, in the experiment on CAKI-1 renal and in the experiment with OVCAR-8 ovarian was above 100 µM throughout. The TGI in the experiment on 786-0 renal, in the experiment on CCRF-CEM leukemia, in the experiment on U251 CNS, with OVCAR-5 ovarian, in the experiment on SF-539 CNS and in the experiment on NCI-H522 lung was above 100 µM each time. The TGI in the experiment on SK-MEL-28 melanoma is above 100 µM.
Take `COc1cccc2c(=O)oc(-c3ccc(C(C)(C)C)cc3)nc12`: the TGI is 63.1 µM with SR leukemia; above 100 µM with MDA-MB-231 breast; above 100 µM in the experiment with MCF7 breast; 48.2 µM with MOLT-4 leukemia; above 100 µM with HS 578T breast; above 100 µM in the experiment with PC-3 prostate. For the same molecule, the TGI is 81.8 µM in the experiment on OVCAR-3 ovarian; above 100 µM with IGROV1 ovarian; above 100 µM in the experiment on UO-31 renal; above 100 µM in the experiment on MALME-3M melanoma; above 100 µM in the experiment on CAKI-1 renal; above 100 µM with OVCAR-8 ovarian. The TGI was above 100 µM with 786-0 renal; above 100 µM in the experiment with CCRF-CEM leukemia; above 100 µM with U251 CNS; above 100 µM in the experiment on OVCAR-5 ovarian; above 100 µM with SF-539 CNS; 89.6 µM in the experiment on NCI-H522 lung. The molecule also returned a TGI in the experiment on SK-MEL-28 melanoma above 100 µM.
On to `CCN(CC)CCN(C(=Nc1ccccc1)N1CCOCC1)c1ccccc1`, for which the TGI in the experiment with SR leukemia, in the experiment on MDA-MB-231 breast, with MCF7 breast, with MOLT-4 leukemia, with HS 578T breast and in the experiment on PC-3 prostate was above 100 µM each time. In addition, the TGI in the experiment with OVCAR-3 ovarian, in the experiment on IGROV1 ovarian, with UO-31 renal, with MALME-3M melanoma, in the experiment with CAKI-1 renal and in the experiment with OVCAR-8 ovarian was above 100 µM in each case. Further, the TGI in the experiment with 786-0 renal, in the experiment on CCRF-CEM leukemia, in the experiment on U251 CNS, in the experiment with SF-539 CNS, in the experiment on NCI-H522 lung and with SK-MEL-28 melanoma was above 100 µM in each case.
`NC1=NCC(CN2CCOCC2)O1` (centres undefined): the TGI with SR leukemia, with MDA-MB-231 breast, in the experiment with MCF7 breast, in the experiment on MOLT-4 leukemia, with HS 578T breast and in the experiment with PC-3 prostate was above 100 µM each time. Moreover, the TGI with OVCAR-3 ovarian, in the experiment on IGROV1 ovarian, in the experiment on UO-31 renal, in the experiment on MALME-3M melanoma, with CAKI-1 renal and with OVCAR-8 ovarian was above 100 µM throughout. For the same molecule, the TGI with 786-0 renal, with CCRF-CEM leukemia, in the experiment on U251 CNS, with OVCAR-5 ovarian, in the experiment with SF-539 CNS and in the experiment with NCI-H522 lung was above 100 µM throughout. Further, the TGI in the experiment on SK-MEL-28 melanoma was above 100 µM.
As for `O=C(Nc1nccs1)c1c(O)nc2sccn2c1=O`, the TGI with SR leukemia, in the experiment with MDA-MB-231 breast, in the experiment on MCF7 breast, in the experiment on MOLT-4 leukemia, in the experiment with HS 578T breast and with PC-3 prostate was above 10 µM in each case. In addition, the TGI in the experiment on OVCAR-3 ovarian, with IGROV1 ovarian, in the experiment with UO-31 renal, with MALME-3M melanoma, with CAKI-1 renal and in the experiment on OVCAR-8 ovarian was above 10 µM each time. Further, the TGI with CCRF-CEM leukemia, in the experiment with U251 CNS, in the experiment with OVCAR-5 ovarian, in the experiment with SF-539 CNS, in the experiment on NCI-H522 lung and with SK-MEL-28 melanoma was above 10 µM throughout.
With `O=C1NCCN1/N=C/c1c(Cl)n(-c2ccccc2)c2ccccc12`, the TGI is 85.7 µM in the experiment with SR leukemia; 44.1 µM in the experiment on MDA-MB-231 breast; 67.3 µM in the experiment on MCF7 breast; above 100 µM with MOLT-4 leukemia; 43.8 µM in the experiment on HS 578T breast; 98.8 µM in the experiment with PC-3 prostate. Further, the TGI with OVCAR-3 ovarian is above 100 µM; in the experiment with IGROV1 ovarian, 41.7 µM; with UO-31 renal it was 46.3 µM; in the experiment with MALME-3M melanoma, 42.7 µM; with CAKI-1 renal it was 51.7 µM; in the experiment on OVCAR-8 ovarian it was 44.8 µM. Further, the TGI in the experiment with 786-0 renal was 77 µM; with CCRF-CEM leukemia it was above 100 µM; with U251 CNS, 58.3 µM; with OVCAR-5 ovarian it was above 100 µM; in the experiment with SF-539 CNS, 33.7 µM; with NCI-H522 lung, 44.4 µM.
